In PubChem BioAssay AID330 (DTP/NCI, 2004):
Several values for one entry are separate records, joined by “and”; a condition that tells them apart may be missing. Identical values can stand only once. Inconclusive results and toxic doses are left out.

Test system: P388 leukemia ip, CD2F1 mice, survival T/C
Assay: NCI In Vivo Anticancer Drug Screen. Data for tumor model P388 Leukemia (intraperitoneal) in CD2F1 (CDF1) mice
Conditions: endpoint: median survival time, higher = longer survival
Procedure, shortened: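 Mice carrying the transplanted tumor received test compound or vehicle. Survival was recorded in each group, and the value is the treated-group measurement divided by that of the vehicle-treated control group.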

[1] = dose: 7.5 mg/kg/injection, schedule: Q01DX005 (ip), vehicle: Klucel (hydroxypropylcellulose) (HPC)
[2] = dose: 15.0 mg/kg/injection, schedule: Q01DX005 (ip), vehicle: Klucel (hydroxypropylcellulose) (HPC)
[3] = dose: 30.0 mg/kg/injection, schedule: Q01DX005 (ip), vehicle: Klucel (hydroxypropylcellulose) (HPC)
[4] = dose: 30.0 mg/kg/injection, schedule: Q01DX009 (ip), vehicle: saline
[5] = dose: 100.0 mg/kg/injection, schedule: Q04DX003 (ip), vehicle: saline
[6] = dose: 25.0 mg/kg/injection, schedule: Q01DX005 (ip), vehicle: saline with Tween-80
[7] = dose: 50.0 mg/kg/injection, schedule: Q01DX005 (ip), vehicle: saline with Tween-80
[8] = dose: 100.0 mg/kg/injection, schedule: Q01DX005 (ip), vehicle: saline with Tween-80
[9] = dose: 200.0 mg/kg/injection, schedule: Q01DX005 (ip), vehicle: saline with Tween-80
[10] = dose: 50.0 mg/kg/injection, schedule: Q01DX005 (ip), vehicle: Klucel (hydroxypropylcellulose) (HPC)
[11] = dose: 100.0 mg/kg/injection, schedule: Q01DX005 (ip), vehicle: Klucel (hydroxypropylcellulose) (HPC)
[12] = dose: 60.0 mg/kg/injection, schedule: Q01DX005 (ip), vehicle: saline with Tween-80
[13] = dose: 120.0 mg/kg/injection, schedule: Q01DX005 (ip), vehicle: saline with Tween-80
[14] = dose: 100.0 mg/kg/injection, schedule: Q01DX009 (ip), vehicle: Klucel (hydroxypropylcellulose) (HPC)
[15] = dose: 200.0 mg/kg/injection, schedule: Q01DX009 (ip), vehicle: Klucel (hydroxypropylcellulose) (HPC)

`CCOC(=O)C1=C(C(=O)c2ccccc2)C(c2ccc([N+](=O)[O-])cc2)C(C(=O)c2ccccc2)=C(C(=O)OCC)N1` was tested, and the T/C [1] was 94 % of control, the T/C [2] was 95 % of control and the T/C [3] was 100 % of control.

With `CCC[As](=O)(O)CCC` the T/C (dose: 20.0 mg/kg/injection, schedule: Q01DX009 (ip), vehicle: saline) was 100 % of control, the T/C (dose: 25.0 mg/kg/injection, schedule: Q04DX003 (ip), vehicle: saline) was 86 % of control and the T/C [4] was 100 % of control. The T/C (dose: 45.0 mg/kg/injection, schedule: Q01DX009 (ip), vehicle: saline) was 113 % of control, the T/C (dose: 50.0 mg/kg/injection, schedule: Q04DX003 (ip), vehicle: saline) was 109 % of control and the T/C [5] was 90 % of control.

`COc1ccc(-c2c(N3CCOCC3)oc3cc(N4CCOCC4)c(O)cc23)cc1` was tested, and the T/C [6] was 100 % of control, the T/C [7] was 98 % of control and the T/C [8] was 100 % of control. For the same compound, the T/C [9] was 91 % of control.

In the case of `O=C(NC(=S)c1ccco1)NS(=O)(=O)c1ccc(Cl)cc1`, the T/C (dose: 25.0 mg/kg/injection, schedule: Q01DX001 (ip), vehicle: saline with Tween-80) is reported as 100 % of control, the T/C (dose: 50.0 mg/kg/injection, schedule: Q01DX001 (ip), vehicle: saline with Tween-80) is reported as 95 % of control and the T/C (dose: 100.0 mg/kg/injection, schedule: Q01DX001 (ip), vehicle: saline with Tween-80) is reported as 96 % of control.

In the case of `Cc1cc(NC(=O)c2ccc(N=Nc3c(O)c(S(=O)(=O)O)cc4cc(S(=O)(=O)O)ccc34)cc2)ccc1N=Nc1ccc2cc(S(=O)(=O)O)cc(S(=O)(=O)O)c2c1`, the T/C [7] is reported as 95 % of control, the T/C [8] is reported as 98 % of control and the T/C [9] is reported as 104 % of control.

For `Nc1c(-c2ccc(C3=NCCN3)cc2)[nH]c2cc(C3=NCCN3)ccc12`, the T/C (dose: 6.25 mg/kg/injection, schedule: Q01DX005 (ip), vehicle: Klucel (hydroxypropylcellulose) (HPC)) was 100 % of control, the T/C (dose: 12.5 mg/kg/injection, schedule: Q01DX005 (ip), vehicle: Klucel (hydroxypropylcellulose) (HPC)) was 118 % of control and the T/C [10] was 196 % of control.

With `CN(C)c1ccc2nc3ccc(=O)cc-3sc2c1` the T/C (dose: 12.5 mg/kg/injection, schedule: Q01DX009 (ip), vehicle: saline with Tween-80) was 100 % of control, the T/C (dose: 25.0 mg/kg/injection, schedule: Q01DX009 (ip), vehicle: saline with Tween-80) was 108 % of control and the T/C (dose: 50.0 mg/kg/injection, schedule: Q01DX009 (ip), vehicle: saline with Tween-80) was 108 % of control. The T/C (dose: 100.0 mg/kg/injection, schedule: Q01DX009 (ip), vehicle: saline with Tween-80) was 120 % of control and 122 % of control.

With `CC(=O)c1coc2c(c(C)nn2-c2ccccc2)c1=O` the T/C [1] was 99 % of control, the T/C [2] was 100 % of control and the T/C [3] was 100 % of control.

For `O=C1C=C(O)CC(c2ccccc2)N1` (configuration not stated), the T/C [10] was 102 % of control, the T/C [11] was 104 % of control and the T/C (dose: 200.0 mg/kg/injection, schedule: Q01DX005 (ip), vehicle: Klucel (hydroxypropylcellulose) (HPC)) was 108 % of control.

For `Cc1c(S)cnc2ccccc12`, the T/C [7] was 99 % of control and the T/C [8] was 93 % of control.

With `COCCOCCOCCOCCOC(=O)CCn1cc(F)c(=O)[nH]c1=O` the T/C (dose: 45.0 mg/kg/injection, schedule: Q04DX002 (ip), vehicle: saline) was 99 % of control, the T/C (dose: 90.0 mg/kg/injection, schedule: Q04DX002 (ip), vehicle: saline) was 106 % of control and the T/C (dose: 180.0 mg/kg/injection, schedule: Q04DX002 (ip), vehicle: saline) was 101 % of control. The T/C (dose: 360.0 mg/kg/injection, schedule: Q04DX002 (ip), vehicle: saline) was 108 % of control.

In the case of `COC(=O)c1cc(=O)nc(NN=C2c3ccccc3-c3ccccc32)s1`, the T/C (dose: 12.5 mg/kg/injection, schedule: Q01DX005 (ip), vehicle: saline with Tween-80) is reported as 97 % of control, the T/C [6] is reported as 94 % of control and the T/C [7] is reported as 88 % of control and 92 % of control.

In the case of `O=C(O)c1cc(N=C=S)ccc1-c1c2ccc(=O)cc-2oc2cc(O)ccc12`, the T/C (dose: 12.5 mg/kg/injection, schedule: Q01DX005 (ip), vehicle: saline + Tween-80 + alcohol) is reported as 105 % of control, the T/C (dose: 25.0 mg/kg/injection, schedule: Q01DX005 (ip), vehicle: saline + Tween-80 + alcohol) is reported as 105 % of control and the T/C (dose: 50.0 mg/kg/injection, schedule: Q01DX005 (ip), vehicle: saline + Tween-80 + alcohol) is reported as 105 % of control. The T/C [12] was 114 % of control and the T/C [13] was 115 % of control.

With `Cc1cc(C)c[n+](-c2nc3c([O-])n(C)c(=O)n(C)c-3n2)c1` the T/C [5] was 94 % of control, the T/C (dose: 200.0 mg/kg/injection, schedule: Q04DX003 (ip), vehicle: saline) was 98 % of control and the T/C (dose: 400.0 mg/kg/injection, schedule: Q04DX003 (ip), vehicle: saline) was 103 % of control.

`CCN(CCOC(=O)Nc1ccc(F)cc1)c1ccccc1` was tested, and the T/C [12] was 111 % of control, the T/C [13] was 96 % of control and the T/C (dose: 240.0 mg/kg/injection, schedule: Q01DX005 (ip), vehicle: saline with Tween-80) was 94 % of control.

With `COc1ccc2c(c1)n([O-])c1ccccc1[n+]2=O` the T/C [6] was 122 % of control and the T/C [8] was 157 % of control and 172 % of control.

In the case of `O=C(Nc1cccc(C(F)(F)F)c1)OC1CC2CC1C1CC3OC3C21` (configuration not stated), the T/C [10] is reported as 93 % of control and the T/C [11] is reported as 87 % of control.

In the case of `NC(=O)c1sc(SCc2ccccc2)c(-[n+]2ccccc2)c1N`, the T/C (dose: 25.0 mg/kg/injection, schedule: Q04DX002 (ip), vehicle: saline with Tween-80) is reported as 105 % of control and the T/C (dose: 50.0 mg/kg/injection, schedule: Q04DX002 (ip), vehicle: saline with Tween-80) is reported as 105 % of control.

`CCC1(c2ccccn2)OCC(CBr)O1` (configuration not stated) was tested, and the T/C [7] was 93 % of control, the T/C [8] was 100 % of control and the T/C [9] was 93 % of control.

`COC(=O)C1(C)N=NN=C1N(C)C` (configuration not stated) was tested, and the T/C (dose: 100.0 mg/kg/injection, schedule: Q04DX002 (ip), vehicle: saline) was 101 % of control, the T/C (dose: 200.0 mg/kg/injection, schedule: Q04DX002 (ip), vehicle: saline) was 100 % of control and the T/C (dose: 400.0 mg/kg/injection, schedule: Q04DX002 (ip), vehicle: saline) was 101 % of control.

`CCC/C(=N\NC(N)=NC)c1ccc(Cl)cc1` was tested, and the T/C (dose: 25.0 mg/kg/injection, schedule: Q04DX002 (ip), vehicle: saline) was 102 % of control and the T/C (dose: 50.0 mg/kg/injection, schedule: Q04DX002 (ip), vehicle: saline) was 93 % of control.

`COc1ccc(CCNC(=O)CCN2C(=O)CCC2=O)cc1OC` was tested, and the T/C (dose: 100.0 mg/kg/injection, schedule: Q01DX009 (ip), vehicle: saline sonified) was 105 % of control, the T/C (dose: 200.0 mg/kg/injection, schedule: Q01DX009 (ip), vehicle: saline sonified) was 105 % of control and the T/C (dose: 400.0 mg/kg/injection, schedule: Q01DX009 (ip), vehicle: saline sonified) was 110 % of control.

With `CCCCOP(=O)(O)OCCCC.[U]` the T/C (dose: 6.25 mg/kg/injection, schedule: Q01DX009 (ip), vehicle: saline with Tween-80) was 97 % of control.

`O=[N+]([O-])c1ccc(N2CCN(CCO)CC2)c2c1no[n+]2[O-]` was tested, and the T/C (dose: 3.75 mg/kg/injection, schedule: Q01DX009 (ip), vehicle: saline) was 98 % of control and 100 % of control and 86 % of control, the T/C (dose: 7.5 mg/kg/injection, schedule: Q01DX009 (ip), vehicle: saline) was 100 % of control and 97 % of control and the T/C (dose: 15.0 mg/kg/injection, schedule: Q01DX009 (ip), vehicle: saline) was 103 % of control (2×) and 90 % of control. The T/C [4] was 100 % of control and 101 % of control and 95 % of control and the T/C (dose: 50.0 mg/kg/injection, schedule: Q01DX009 (ip), vehicle: suspension in saline) was 109 % of control.

In the case of `[N-]=[N+]=CC(=O)NC(Cc1ccccc1)C(=O)NN` (configuration not stated), the T/C (dose: 25.0 mg/kg/injection, schedule: Q01DX005 (ip), vehicle: Klucel (hydroxypropylcellulose) (HPC)) is reported as 107 % of control, the T/C [10] is reported as 98 % of control and the T/C [11] is reported as 110 % of control.

`CC(C)(C)C(=O)OC/C=C\COC(=O)c1ccccc1` was tested, and the T/C (dose: 25.0 mg/kg/injection, schedule: Q01DX009 (ip), vehicle: Klucel (hydroxypropylcellulose) (HPC)) was 101 % of control, the T/C (dose: 50.0 mg/kg/injection, schedule: Q01DX009 (ip), vehicle: Klucel (hydroxypropylcellulose) (HPC)) was 104 % of control and 95 % of control and 96 % of control and the T/C [14] was 103 % of control and 104 % of control and 122 % of control. The T/C [15] was 111 % of control.

With `O=C(Nc1ccc(Cl)cc1)OC1CCS(=O)(=O)C1` (configuration not stated) the T/C [14] was 100 % of control and the T/C [15] was 89 % of control.

`Cc1ccccc1NP1(=O)OCCCN1Cc1ccc(Cl)c(Cl)c1` (configuration not stated) was tested, and the T/C [7] was 100 % of control, the T/C [8] was 98 % of control and the T/C [9] was 93 % of control.
